Source: ChEMBL document CHEMBL1201862, “PubChem BioAssay data set” (2004)
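Step 1: Grow cells in 96-well plates. Step 2: Expose to compound for 48 hours at 5 concentrations. Step 3: Interpolate endpoints linearly; if unreached, use highest concentration. At the GI50, growth is halved.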 Active and inactive are the calls of the source. Cut-off read from the data, not from the text of the source: active = GI50 up to about 1.1 µM and inactive = higher.

What was measured:
Test in all cases: NCI tumour cell line growth inhibition, 48 h
[1] = test system: UACC-257
[2] = test system: PC-3
[3] = test system: SK-MEL-5
[4] = test system: MOLT-4
[5] = test system: TK-10
[6] = test system: SNB-75
[7] = test system: CCRF-CEM
[8] = test system: MDA-MB-435
[9] = test system: SR
[10] = test system: KM12
[11] = test system: RPMI-8226
[12] = test system: NCI/ADR-RES
[13] = test system: SNB-19
[14] = test system: UO-31
[15] = test system: SK-MEL-28
[16] = test system: SF-539
[17] = test system: SK-OV-3
[18] = test system: NCI-H460
[19] = test system: COLO 205
[20] = test system: Hs-578T

SMILES | GI50 [1] | GI50 [2] | GI50 [3] | GI50 [4] | GI50 [5] | GI50 [6] | GI50 [7] | GI50 [8] | GI50 [9] | GI50 [10] | GI50 [11] | GI50 [12] | GI50 [13] | GI50 [14] | GI50 [15] | GI50 [16] | GI50 [17] | GI50 [18] | GI50 [19] | GI50 [20]
CCOC(=O)/C=C/C1OC(C)(C)OC1/C=C/C(=O)OCC (stereo not given) | 48.4 µM (inactive) | 44.9 µM (inactive) | 38.4 µM (inactive) | 28.4 µM (inactive) | 39.3 µM (inactive) | 22.6 µM (inactive) | 17.2 µM (inactive) | 29 µM (inactive) | 15.1 µM (inactive) | 25.4 µM (inactive) | 24.8 µM (inactive) | 32.7 µM (inactive) | 33.9 µM (inactive) | > 100 µM (inactive) | 28.4 µM (inactive) | 40.2 µM (inactive) | > 100 µM (inactive) | 21.2 µM (inactive) | 30.6 µM (inactive) | 37.8 µM (inactive)
O=C1Nc2ccccc2/C1=N/Nc1ccc([N+](=O)[O-])cc1 | 29.5 µM (inactive) | 27.4 µM (inactive) | 35.6 µM (inactive) | 21.1 µM (inactive) | 24 µM (inactive) | 12.3 µM (inactive) | 22.4 µM (inactive) | 40.3 µM (inactive) | 1.46 µM (inactive) | 20.2 µM (inactive) | 24.8 µM (inactive) | 15.4 µM (inactive) | 32.8 µM (inactive) | 13.3 µM (inactive) | 41.3 µM (inactive) | 3.83 µM (inactive) | 24.2 µM (inactive) | 30.1 µM (inactive) | 93.5 µM (inactive) | 9.06 µM (inactive)
NC(=O)C(Nc1c(Cl)cccc1Cl)c1cc2cc(Br)ccc2nc1Cl (stereo not given) | 83.2 µM (inactive) | 38.9 µM (inactive) | 37.5 µM (inactive) | 20.7 µM (inactive) | 34.6 µM (inactive) | > 100 µM (inactive) | 33.2 µM (inactive) | 19.5 µM (inactive) | 12.2 µM (inactive) | 38 µM (inactive) | 31.5 µM (inactive) | 42.5 µM (inactive) | 74.3 µM (inactive) | 55 µM (inactive) | > 100 µM (inactive) | 41.7 µM (inactive) | > 100 µM (inactive) | 90.8 µM (inactive) | 24.4 µM (inactive) | 85.3 µM (inactive)
N=C(N)N/N=C\c1c(-c2ccccc2)nc2sccn12 | 13.4 µM (inactive) | 15.1 µM (inactive) | 15.6 µM (inactive) | 18.5 µM (inactive) | 17.4 µM (inactive) | 12.2 µM (inactive) | 21.6 µM (inactive) | 15.6 µM (inactive) | 22.4 µM (inactive) | 14.2 µM (inactive) | 20 µM (inactive) | 18.2 µM (inactive) | 14.3 µM (inactive) | 17.8 µM (inactive) | 15.7 µM (inactive) | 16.5 µM (inactive) | 19 µM (inactive) | 16.2 µM (inactive) | 12 µM (inactive) | 14 µM (inactive)
CN(NC(=O)c1ccco1)C1=NCCN1 | > 100 µM (inactive) | > 100 µM (inactive) | > 100 µM (inactive) | > 100 µM (inactive) | > 100 µM (inactive) | > 100 µM (inactive) | > 100 µM (inactive) | > 100 µM (inactive) | > 100 µM (inactive) | > 100 µM (inactive) | > 100 µM (inactive) | > 100 µM (inactive) | > 100 µM (inactive) | > 100 µM (inactive) | > 100 µM (inactive) | > 100 µM (inactive) | > 100 µM (inactive) | > 100 µM (inactive) | > 100 µM (inactive) | > 100 µM (inactive)
CC(=O)OC12c3ccccc3-c3ccccc3C1C1C(=O)OC(=O)C12 (stereo not given) | > 10 µM (inactive) | > 10 µM (inactive) | > 10 µM (inactive) | > 10 µM (inactive) | > 10 µM (inactive) | > 10 µM (inactive) | > 10 µM (inactive) | > 10 µM (inactive) | > 10 µM (inactive) | > 10 µM (inactive) | > 10 µM (inactive) | > 10 µM (inactive) | > 10 µM (inactive) | > 10 µM (inactive) | > 10 µM (inactive) | > 10 µM (inactive) | > 10 µM (inactive) | > 10 µM (inactive) | > 10 µM (inactive) | > 10 µM (inactive)
Cc1cnc2nc(-c3ccc(Cl)cc3)cc(O)c2c1 | 11.5 µM (inactive) | 2.12 µM (inactive) | 2.49 µM (inactive) | 3.31 µM (inactive) | 43.2 µM (inactive) | 5.14 µM (inactive) | 4.44 µM (inactive) | 0.47 µM (active) | 0.598 µM (active) | 3.76 µM (inactive) | 3.88 µM (inactive) | 6.1 µM (inactive) | 5.35 µM (inactive) | 8.59 µM (inactive) | > 22.9 µM (inactive) | 2.37 µM (inactive) | 18.4 µM (inactive) | 3.47 µM (inactive) | 4.31 µM (inactive) | 6.7 µM (inactive)
